The text below walks through data of patent US11591319B2, “Small molecule inducers of autophagy” (Board of Regents, The University of Texas System, priority 2018, dated 2023).

Structures are written as SMILES. Some results are limits rather than exact numbers.

As a reminder, the IC50 is the concentration that gives 50% inhibition. A low value points to greater potency in that assay.

In the experiment the target is Beclin 1/Bcl-2 interaction (Homo sapiens (Human), UniProt P10415). Nature of the experiment: Beclin 1/Bcl-2 AlphaLISA assay (dose-response). It counts as binding. From the text:
We also developed a high-throughput Beclin 1/Bcl-2 AlphaLISA assay to directly measure the in vitro interaction between Beclin 1 and Bcl-2. AlphaLISA is a bead-based proximity assay that is capable of measuring protein-protein interaction in homogeneous solution.^41 Oxygen singlet molecules are generated by Alpha donor beads upon irradiation at 680 nm and travel to acceptor beads in proximity. […] Thus, a measurable Alpha luminescence signal requires chemical energy transfer between the donor and acceptor beads, and a pair of interacting molecules immobilized on the beads stabilizes bead association to produce measurable Alpha signals.
We used purified recombinant Beclin 1 and Bcl-2 proteins for AlphaLISA, which were optimized for enhanced solubility and expression. Human Beclin 1 was expressed as a fusion protein with StrepII-SUMO at the N-terminus, and three residues on the aromatic finger of Beclin 1 were mutated (F359D/F360D/W361D) to improve solubility and protein stability.^42 These mutations are in the BARA domain, which is far from the BH3 motif recognized by Bcl-2. A recombinant Bcl-2-binding deficient mutant of Beclin 1 (StrepII-SUMO-Beclin 1^ΔBcl-2BD) was used as a negative control. […] For a normalization control, we included a parallel AlphaLISA assay with purified SUMO protein (with an N-terminal StrepII tag and a C-terminal 6xHis tag). The purpose of a normalization control is to eliminate inner filter (false-positive) hits that reduce luminescence signal by interfering with the AlphaLISA assay in ways that are unrelated to the Beclin 1/Bcl-2 interaction. With the normalization control, the interaction of Beclin 1 and Bcl-2 was measured as follows:
All AlphaLISA assays were performed in triplicate in a 384-well format with BB buffer (phosphate-buffered saline supplemented with 0.5% BSA and 1 mM DTT). For the Beclin 1/Bcl-2 AlphaLISA, purified StrepII-SUMO-Beclin 1 was incubated with Bcl-2-6xHis proteins at 300 nM and 60 nM, respectively. For internal control AlphaLISA assays, StrepII-SUMO-6xHis protein (internal control) was used at 20 nM. […] Following the initial incubation, Strep-Tactin Alpha donor (AS106D) and anti-6xHis AlphaLISA acceptor beads (AL128M) were added to a final concentration of 40 μg/mL each and incubated at room temperature in the dark for an additional 1 h. All samples were evaluated in triplicate. Alpha signals were measured by an Envision plate reader (Perkin Elmer). Beclin 1/Bcl-2 Alpha signal was normalized with internal control Alpha signal. The normalized value represents the binding activity of Beclin 1 and Bcl-2. The percent activity of a compound was calculated as the following formula: […]
Protein or peptide concentrations used in dose-response AlphaLISA experiments were as follows: Beclin1/Bcl-2—300 nM/60 nM; SUMO (internal control for Beclin 1/Bcl-2 AlphaLISA)—20 nM; Beclin 1 BH3/Bcl-2—1000 nM/60 nM; Bax BH3/Bcl-2—100 nM/20 nM; Biotin-6xHis (internal control for BH3/Bcl-2 AlphaLISA)—10
For orientation: Bead proximity is the source of the signal in Alpha formats.

Sequence of Beclin 1/Bcl-2 interaction (P10415 1-218): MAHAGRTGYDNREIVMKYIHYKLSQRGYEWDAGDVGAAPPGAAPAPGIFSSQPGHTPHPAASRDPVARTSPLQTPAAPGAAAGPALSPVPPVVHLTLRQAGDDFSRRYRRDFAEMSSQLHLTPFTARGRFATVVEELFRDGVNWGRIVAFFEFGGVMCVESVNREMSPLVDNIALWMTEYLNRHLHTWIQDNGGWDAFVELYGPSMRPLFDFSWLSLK

In turn, `CC1=NN(C(=O)c2ccc(Br)cc2)C(c2ccccc2)C1` (centres unmarked) [Lqr-8-296] gave an IC50 of more than 10000 nM.
As for `CC(C)(C)OC(=O)Nc1ccc(C2=NN(C(=O)c3ccc4c(c3)OCO4)C(c3ccccc3)C2)cc1` (centres unmarked) [Lqr-9-065], the figure is 6770 nM; as for `Cc1ccc(C(=O)N2N=C(c3ccc(NS(C)(=O)=O)cc3)CC2c2ccco2)cc1` (centres unmarked) [lqr-8-177], 16200 nM.
For `CS(=O)(=O)Nc1ccc(C2=NN(C(=O)c3ccc(Cl)cc3)C(c3ccco3)C2)cc1` (centres unmarked) [lqr-8-180] the value was 2760 nM; for `CS(=O)(=O)Nc1ccc(C2=NN(C(=O)c3ccc(F)cc3)C(c3ccco3)C2)cc1` (centres unmarked) [lqr-8-183], 12800 nM.
As for `COc1ccc(C(=O)N2N=C(c3ccc(NS(C)(=O)=O)cc3)CC2c2ccco2)cc1` (centres unmarked) [lqr-8-185], the figure is 9900 nM; as for `CS(=O)(=O)Nc1ccc(C2=NN(C(=O)c3ccc(Br)cc3)C(c3ccco3)C2)cc1` (centres unmarked) [lqr-8-186], 2420 nM.
As for `CS(=O)(=O)Nc1ccc(C2=NN(C(=O)c3ccc([N+](=O)[O-])cc3)C(c3ccco3)C2)cc1` (centres unmarked) [lqr-8-188], half-maximal inhibition (IC50) was put at 1680 nM.
For `CS(=O)(=O)Nc1ccc(C2=NN(C(=O)c3ccc(C(F)(F)F)cc3)C(c3ccco3)C2)cc1` (centres unmarked) [lqr-8-189], 2790 nM corresponded to half-maximal inhibition (IC50).
For `CS(=O)(=O)Nc1ccc(C2=NN(C(=O)c3ccc(C#N)cc3)C(c3ccco3)C2)cc1` (centres unmarked) [lqr-8-190] the value was 7230 nM; for `CS(=O)(=O)Nc1ccc(C2=NN(C(=O)c3ccc(I)cc3)C(c3ccco3)C2)cc1` (centres unmarked) [lqr-8-196], 2140 nM; for `Cc1ccc(C(=O)N2N=C(c3ccc(NC(=O)OC(C)(C)C)cc3)CC2c2ccco2)cc1` (centres unmarked) [lqr-8-203], 2880 nM.
On to `CCNc1ccc(C2=NN(C(=O)c3ccc(C)cc3)C(c3ccco3)C2)cc1` (centres unmarked) [lqr-8-219], for which half-maximal inhibition (IC50) was put at 29800 nM.
For `CC(C)(C)OC(=O)Nc1ccc(C2=NN(C(=O)c3ccc(Br)cc3)C(c3ccco3)C2)cc1` (centres unmarked) [lqr-8-231] the value was 982 nM; for `CC(C)(C)OC(=O)Nc1ccc(C2=NN(C(=O)c3ccc([N+](=O)[O-])cc3)C(c3ccco3)C2)cc1` (centres unmarked) [lqr-8-233], 1240 nM; for `COC(=O)Nc1ccc(C2=NN(C(=O)c3ccc(C)cc3)C(c3ccco3)C2)cc1` (centres unmarked) [lqr-8-235], 1800 nM.
As for `Cc1ccc(C(=O)N2N=C(c3ccc(NS(C)(=O)=O)cc3)CC2c2ccccc2)cc1` (centres unmarked) [lqr-8-238], the figure is 905 nM.
Turning to `Cc1ccc(C(=O)N2N=C(c3ccc(NS(C)(=O)=O)cc3)CC2c2ccc(Br)cc2)cc1` (centres unmarked) [lqr-8-267], the IC50 is 13900 nM.
As for `Cc1ccc(C(=O)N2N=C(c3ccc(NS(C)(=O)=O)cc3)CC2c2ccccc2Br)cc1` (centres unmarked) [lqr-8-269], the figure is 9830 nM.
For `Cc1ccc(C(=O)N2N=C(c3ccc(NS(C)(=O)=O)cc3)CC2c2ccc(C)cc2)cc1` (centres unmarked) [lqr-8-275] the value was 14200 nM; for `CC(C)(C)OC(=O)Nc1ccc(C2=NN(C(=O)c3ccc(Br)cc3)C(c3ccccc3)C2)cc1` (centres unmarked) [lqr-8-278], 274 nM; for `CC(C)(C)OC(=O)Nc1ccc(C2=NN(C(=O)c3ccc([N+](=O)[O-])cc3)C(c3ccccc3)C2)cc1` (centres unmarked) [lqr-8-279], 349 nM.
As to `CC(C)(C)OC(=O)Nc1ccc(C2=NN(C(=O)c3ccc(Br)cc3)C(c3ccc(Br)o3)C2)cc1` (centres unmarked) [lqr-8-302], the IC50 came out at 2680 nM.
In turn, `O=C(c1ccc(Br)cc1)N1N=C(c2ccco2)CC1c1ccccc1` (centres unmarked) [lqr-8-309] had an IC50 of more than 10000 nM.
For `O=C(c1ccc(Br)cc1)N1N=C(c2ccc[nH]2)CC1c1ccccc1` (centres unmarked) [lqr-8-310] the value was more than 10000 nM; for `COC(=O)Nc1ccc(C2=NN(C(=O)c3ccc(Br)cc3)C(c3ccccc3)C2)cc1` (centres unmarked) [lqr-9-008], 10000 nM; for `CC(C)(C)OC(=O)Nc1ccc(-c2cc(-c3ccccc3)[nH]n2)cc1` [lqr-9-012], more than 10000 nM.
For `CC(C)(C)OC(=O)Nc1ccc(-c2cc(-c3ccccc3)n(C(=O)c3ccc(Br)cc3)n2)cc1` [lqr-9-013] the value was more than 10000 nM.
Compound `CC(C)(C)OC(=O)n1cccc1C1=NN(C(=O)c2ccc(Br)cc2)C(c2ccccc2)C1` (centres unmarked) [lqr-9-018] gave an IC50 of more than 10000 nM.
For `CCC1CC(c2ccc(NC(=O)OC(C)(C)C)cc2)=NN1C(=O)c1ccc(Br)cc1` (centres unmarked) [lqr-9-026] the value was 13000 nM; for `CC(C)(C)OC(=O)Nc1ccc(C2=NN(C(=O)c3ccc(Br)cc3)C(c3ccccn3)C2)cc1` (centres unmarked) [lqr-9-033], 455 nM.
Compound `CC(C)(C)OC(=O)Nc1ccc(C2=NN(C(=O)c3ccc(Br)cc3)C(c3cccnc3)C2)cc1` (centres unmarked) [lqr-9-044] had an IC50 of 1800 nM.
For `CC(C)(C)OC(=O)Nc1ccc(C2=NN(C(=O)c3ccc(Br)cc3)C(c3ccncc3)C2)cc1` (centres unmarked) [lqr-9-046] the value was 3000 nM.
Consider `CC(C)(C)OC(=O)Nc1ccc(C2=NN(C(=O)c3ccc(Br)cc3)C(c3ccoc3)C2)cc1` (centres unmarked) [lqr-9-048], for which the midpoint of inhibition, the IC50, lay at 4100 nM.
As for `CC(C)(C)OC(=O)Nc1cccc(C2=NN(C(=O)c3ccc(Br)cc3)C(c3ccccc3)C2)c1` (centres unmarked) [lqr-9-055], the figure is 12000 nM.
`CC(C)(C)OC(=O)Nc1ccc(C2=NN(C(=O)OC(C)(C)C)C(c3ccccc3)C2)cc1` (centres unmarked) [lqr-9-056]: the IC50 is more than 10000 nM.
As to `O=C=Nc1ccc(C2=NN(C(=O)c3ccc(Br)cc3)C(c3ccccc3)C2)cc1` (centres unmarked) [lqr-9-068], the IC50 is more than 10000 nM.
`CC(C)NC(=O)Nc1ccc(C2=NN(C(=O)c3ccc(Br)cc3)C(c3ccccc3)C2)cc1` (centres unmarked) [lqr-9-076] returned an IC50 of 349 nM.
As for `CC(C)NC(=O)Nc1ccc(C2=NN(C(=O)c3ccc(Br)cc3)C(c3ccccc3)C2)cc1` (centres unmarked) [lqr-9-085], the figure is 63 nM; as for `O=C1OCCN1c1ccc(C2=NN(C(=O)c3ccc(Br)cc3)C(c3ccccc3)C2)cc1` (centres unmarked) [lqr-9-088], 5140 nM.
In the case of `CC(C)(C)NC(=O)Nc1ccc(C2=NN(C(=O)c3ccc(Br)cc3)C(c3ccccc3)C2)cc1` (centres unmarked) [lqr-9-118], inhibition was half-maximal at 9100 nM (IC50).
For `CNC(=O)Nc1ccc(C2=NN(C(=O)c3ccc(Br)cc3)C(c3ccccc3)C2)cc1` (centres unmarked) [lqr-9-121] the value was 5520 nM.
For `CC(C)COC(=O)Nc1ccc(C2=NN(C(=O)c3ccc(Br)cc3)C(c3ccccc3)C2)cc1` (centres unmarked) [lqr-9-155] the value was 184 nM.
For `C=CCOC(=O)Nc1ccc(C2=NN(C(=O)c3ccc(Br)cc3)C(c3ccccc3)C2)cc1` (centres unmarked) [lqr-9-156] the value was less than 156 nM; for `CCOC(=O)Nc1ccc(C2=NN(C(=O)c3ccc(Br)cc3)C(c3ccccc3)C2)cc1` (centres unmarked) [lqr-9-157], less than 156 nM; for `CN(C)C(=O)Nc1ccc(C2=NN(C(=O)c3ccc(Br)cc3)C(c3ccccc3)C2)cc1` (centres unmarked) [lqr-9-158], 2390 nM.
`O=C(Nc1ccc(C2=NN(C(=O)c3ccc(Br)cc3)C(c3ccccc3)C2)cc1)OC1CC1` (centres unmarked) [lqr-9-161] gave an IC50 of less than 156 nM.
